These results are taken from US10261017B2, “Methods for detecting and categorizing skin sensitizers” (University of Mississippi, priority 2014, dated 2019).

For data set [1] the following is noted: mouse, in vivo; cited from earlier work.
For data set [2], the system named is thiol peptide. The settings on record: cited from earlier work.
Data set [3] concerns thiol peptide.
For data set [4], the system named is ARE-dependent gene activity in a recombinant cell line. The settings on record: cited from earlier work.
The conditions of data set [5]: pH 10.
A short description of data set [6]: NMR method: depletion of electrophile signal on reaction with DCYA. An excerpt: The described example can be applied to pure chemicals and mixtures. The method includes the acquisition of at least one NMR spectrum, mixing an electrophile and a nucleophile to acquire an array of control spectra and an addition of catalyst to record an array of reaction spectra. It also includes the quantification of at least one signal and the comparison of the signal with a control and the classification of the reaction based on the depletion of potential sensitizer based on the quantified residual signal.
2,5-Dimethylfuran was used as internal standard. When necessary, characterization of the product(s) formed during the reaction(s) was performed by homonuclear ^1H connectivities using 2D-COSY experiments. […] Two- and three bond ^1H-^13C connectivities were determined by gradient-HMBC experiments in which the evolution period for long-range ^1H-^13C coupling constants was optimized for a ^2,3JC,H of 8 Hz. Through-space ^1H connectivities were determined using a NOESY experiment with a mixing time of 0.450 s. […] Toronto, Canada].
In a 3 mm NMR tube, 1 volume of DCYA (100) mM in CDCl3) was mixed with one volume of sensitizer (100 mM in CDCl3) to give a final concentration of 50 mM for both DCYA and the sensitizer. Control ^1H NMR spectra (reference spectra) were recorded at regular intervals of for a minimum of 5 min. […] All spectra were recorded at constant temperature. All experiments were conducted using the manufacturer's standard presaturation pulse programs and experimental conditions were chosen as explained in NMR spectroscopy section. The progress of the reaction was followed by the diminished peak areas of the resonances for the signal of interest. The spectra were phased, referenced, and integrated using NMR data elaboration software. The structural characterizations of the resulting adducts were confirmed by conducting additional 2D-NMR experiments when necessary.
Covalent reaction of DCYA with carvone is dependent on the activation of the nucleophilic group (ex. sulfhydryl group to the reactive thio-anion) under basic conditions. This reaction is strongly dependent on the nature of the nucleophile and may be modulated by careful choice of the model nucleophile and the reaction conditions.
The control spectra are used as reference spectra (FIG. 3A). All the spectra were subjected to automatic phase and baseline correction using a Bernstein polynomial fit (order 3). After these two steps, all the spectra were integrated over the areas of interest. […] Both vinylic and adduct peak areas were normalized relative to the internal standard signal peaks. […] The concentrations of both electrophile and adduct were then plotted as percentage against time (in minutes). (FIG. 5).

For data set [7] the following is noted: cited from earlier work.
A short description of data set [8]: Microplate spectrophotometric method (DCYA assay), fluorescence end-point. The settings on record: for DCYA 100-RI: RI = reactivity index, 2 equiv. electrophile, pH 10 buffer; for DCYA assay reactivity / classification in words: microplate spectrophotometric method.
Data set [9] in a line: Fluorescent response of DCYA in acetonitrile over time. Format: physicochemical. The settings on record: micromolar solutions, after 3 h at room temperature. The protocol:
The fluorescent responses of DCYA and DCYA disulfide in ACN were investigated at different concentrations using 1-300 μL/well in a 96 microplate reader at room temperature. Pure acetonitrile was used as a solvent control. The optimum excitation and emission wavelength combination was determined by performing excitation and emission scans. […] At these wavelengths, no solvent interference was observed. […] A linear response for DCYA was observed between 5-80 μM ([…]) concentrations with a R^2=0.995.

The nature of data set [10]: TLC monitoring of DCYA reactions with electrophiles. The settings on record: pH 10 buffer, 1-2.5 equiv. electrophile.
Text: For visualization purposes, the controls, blank and reactions were monitored by TLC on silica gel plates. A known volume of each sample was loaded on a silica gel plate and eluted with appropriate solvent system. The TLC plates were examined λ366 for the presence of the yellow fluorescence spots corresponding DCYA, its dimer or possible reaction products.
In order to minimize the competition between auto-dimerization [(DCYA)2] and nucleophilic addition, the reaction time and the electrophile:nucleophile stoichiometry were optimized. Massoia lactone at different concentrations was used to monitor the progress of the reaction by TLC (FIG. 11). […] In order to adequately discriminate between compounds with variable electrophilic strength, the assay was optimized using 2 equivalents of electrophile.
The mark [11] stands for this setting: conversion of test chemical at 90 min, 1 equiv. DCYA, 0.1 equiv. DBN, CDCl3.

Several values for one entry are separate records, joined by “and”; a condition that tells them apart may be missing. Equal values may be shown once. Read-outs that look alike come from different tables or passages of the source. Marks after values point to notes of the source that are not given here.

Turning to `O=c1c(O)c(O)c1=O` [Squaric acid], the LLNA EC3 in data set [1] was 4.3%. Moreover, the “Cys-DPRA % Pept. remain.” value in the data set with thiol peptide [2] is reported as 53.1%. For the same molecule, in the data set on thiol peptide [3], the “Cys-DPRA binary classification: FN” value worked out at 0, the “Cys-DPRA binary classification: FP” value is given as 0, the “Cys-DPRA binary classification: TN” value is given as 0 and the “Cys-DPRA binary classification: TP” value was found to be 1. Moreover, the “KeratinoSens ™ EC3” value in [4] is more than 2000 µM. Besides, the “DCYA 100-RI” value in data set [5] is given as 91.1.

For the molecule `O=CC=Cc1ccccc1` [Cinnamaldehyde], in data set [1], the LLNA (EC3) was 3%, the “LLNA Classification” value is listed as “Moderate” and the LLNA EC3 was 3%. For the same molecule, in data set [6], the “NMR Classification” value is given as “Moderate” and the “NMR assay reactivity / classification in words” value is given as “moderate sensitizer”. Besides, the “Conversion at t30 (depletion of electrophile signal)” value (shortened to “Conversion at t30”) in [6] (at 30 min, 1 equiv. DCYA) came to 50%. Moreover, the “NMR Method conversion” value in [6] (setting [11]) is on record as 50%. Also, in the data set on thiol peptide [2], the “Cys-DPRA % Pept. remain.” value is reported as 29.4% and the “Cys-DPRA, percentage of thiol peptide depleted” value was 70.6%. In addition, in the data set on thiol peptide [3], the “Cys-DPRA binary classification: FN” value worked out at 0, the “Cys-DPRA binary classification: FP” value worked out at 0, the “Cys-DPRA binary classification: TN” value was 0 and the “Cys-DPRA binary classification: TP” value is recorded as 1. In data set [4], the “KeratinoSens ™ EC3” value is 63.94 µM. Further, in [5] (2.1 mM), the “DCYA 100-RI” value worked out at 85.1, the “DCYA binary classification: FN” value was 0, the “DCYA binary classification: FP” value is on record as 0 and the “DCYA binary classification: TN” value stood at 0. In data set [5] (2.1 mM), the “DCYA binary classification: TP” value is 1.

For `C=C1C(=O)O[C@@H]2/C=C(\C)CC/C=C(\C)CC[C@@H]12` [Costunolide], the “NMR Classification” value in data set [6] is given as “Strong”. The “NMR Method conversion” value in [6] (10 min, 50 mM) was >97* %. The “Conversion at t30” value in data set [6] (30 min, 50 mM) was found to be 97%. Besides, the “Result in human patch tests” value in data set [7] (reported in literature) is recorded as “Positive in human patch tests^6”. The “DCYA 100-RI” value in data set [8] is −8.5. For the same molecule, the “DCYA binary classification: FN” value in [8] (false negative) came to 0. Further, the “DCYA binary classification: FP” value in data set [8] (false positive) was 0. For the same molecule, the entries for the “DCYA assay reactivity / classification in words” value in [8] and in data set [8] (listed as costunolide) were “strongly reactive” and “strong sensitizers”, respectively. Besides, the “DCYA binary classification: TN” value in [8] (true negative) turned out to be 0. Besides, in data set [8] (true positive, positive if 100-RI <95), the “DCYA binary classification: TP” value came out at 1.

`CN(C)c1cccc2c(S(=O)(=O)NCCS)cccc12` [DCYA, 5-(dimethylamino)-N-(2-mercaptoethyl)naphthalene-1-sulfonamide]: the “Loss of fluorescence response” value in data set [9] is 1.5-3.0%.

With `C=C1C(=O)O[C@@H]2C[C@@]3(C)CCC[C@H](C)C3=C[C@H]12` [Alantolactone], in data set [6], the “Conversion at t30” value came out at 99%, the “NMR Classification” value is given as “Strong” and the “NMR Method conversion” value was >99* %. The “DCYA 100-RI” value in [5] was −6.7. For the same molecule, in data set [7] (in vivo), the “Result in human patch tests” value was “Positive in human patch tests^6”.

For `CCCCC[C@@H]1CC=CC(=O)O1` [Massoia lactone], the “NMR assay reactivity / classification in words” value in [6] was “moderate to strong skin sensitizer”. Further, the “Conversion at t30” value in [6] (at 30 min, 1 equiv. DCYA, listed as Massoialactone) came out at 59%; in [6] (at 30 min, 1 equiv. DCYA, listed as massoia lactone) it was 60%. The “NMR Classification” value in [6] (based on depletion of electrophile signal at 30 min) is given as “Moderate-strong”. The “NMR Method conversion” value in data set [6] (setting [11]) was found to be 66%. Besides, in data set [10], the “TLC: adduct formation with DCYA” value is “only a partial reaction was achieved”. The “Fluorescence response, Reaction (R), average of 9 readings” value in data set [8] (DCYA + test article + pH 10 buffer + resin, listed as ML) was 6064.127 RFU and 6064 RFU. For the same molecule, the “DCYA 100-RI” value in [8] amounted to 12.8.
